The results in this text go back to ChEMBL document CHEMBL5365453, “Synthesis and biological evaluation of xanthine derivatives with phenacyl group as tryptophan hydroxylase 1 (TPH1) inhibitors for obesity and fatty liver disease” (Bioorg Med Chem Lett, 2023).

The target in data set [1] is T1, Tryptophan 5-hydroxylase 1 (Homo sapiens) (UniProt P17752).
T1 sequence (whole entry): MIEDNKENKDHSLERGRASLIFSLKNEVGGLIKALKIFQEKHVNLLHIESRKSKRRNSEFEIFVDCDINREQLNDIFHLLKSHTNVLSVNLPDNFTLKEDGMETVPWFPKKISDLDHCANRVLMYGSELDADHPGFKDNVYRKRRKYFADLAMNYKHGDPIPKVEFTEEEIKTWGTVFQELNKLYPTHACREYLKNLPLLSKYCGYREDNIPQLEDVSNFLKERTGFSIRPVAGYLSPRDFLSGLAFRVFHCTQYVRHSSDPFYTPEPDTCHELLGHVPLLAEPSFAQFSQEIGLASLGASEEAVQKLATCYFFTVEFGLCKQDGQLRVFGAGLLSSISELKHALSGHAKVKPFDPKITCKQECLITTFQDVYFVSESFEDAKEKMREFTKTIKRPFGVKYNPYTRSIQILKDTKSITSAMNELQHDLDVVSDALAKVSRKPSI
The experiment in a line: Inhibition of TPH1 ( unknown origin ) at 1 uM relative to control.

Data set [2] concerns the target T2, Tryptophan 5-hydroxylase 1 (Homo sapiens, UniProt P17752).
T2 sequence (P17752 whole entry): T1 sequence (whole entry)
Put plainly: Inhibition of TPH1 ( unknown origin ).

The nature of data set [3]: Stability in human liver microsomes assessed as compound remaining measured after 30 mins. Type of data set: ADME, Microsome. The settings on record: read-out: Stability.
A short description of data set [4]: Stability in mouse liver microsomes assessed as compound remaining measured after 30 mins. The following applies: read-out: Stability. Type of data set: ADME, Microsome.
Data set [5] concerns the target T3, Tryptophan 5-hydroxylase 1 (Mus musculus) (UniProt P17532).
T3 sequence (whole entry): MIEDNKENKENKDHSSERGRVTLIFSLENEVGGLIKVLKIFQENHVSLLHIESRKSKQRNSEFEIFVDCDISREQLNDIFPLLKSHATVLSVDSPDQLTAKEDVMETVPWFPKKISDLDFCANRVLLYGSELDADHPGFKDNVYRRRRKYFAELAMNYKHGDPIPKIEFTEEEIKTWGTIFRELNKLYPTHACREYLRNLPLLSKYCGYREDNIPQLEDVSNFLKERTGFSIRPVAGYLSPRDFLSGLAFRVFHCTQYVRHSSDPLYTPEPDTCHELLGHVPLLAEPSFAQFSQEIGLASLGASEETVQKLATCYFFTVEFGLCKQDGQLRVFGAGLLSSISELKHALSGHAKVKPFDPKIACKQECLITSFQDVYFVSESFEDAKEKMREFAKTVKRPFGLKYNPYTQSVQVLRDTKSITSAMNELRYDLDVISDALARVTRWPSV
Put plainly: Inhibition of TPH1 in mouse 3T3-L1 cells assessed as suppression of insulin-induced adipocyte differentiation by measuring reduction in lipid droplet accumulation at 1 to 2 uM measured on day 7 post-adipogenesis induction by oil red O staining based phase-contrast light microscopy. Type of data set: cell-based. The following applies: dose 1-2 µM, time 7.0 day.

Data set [6] concerns the target T3, Tryptophan 5-hydroxylase 1 (Mus musculus). The experiment in a line: Inhibition of TPH1 in mouse 3T3-L1 cells assessed as suppression of insulin-induced adipocyte differentiation by measuring reduction in lipid droplet accumulation at 1 to 2 uM measured on day 7 post-adipogenesis induction by oil red O staining based spectrophotometry. The settings on record: dose 1-2 µM, time 7.0 day. Type of data set: cell-based.

Calls of active or inactive are those of the source. The calls are words filed in the database; no cut-off is given here.

Turning to `CCn1c(=O)[nH]c(=O)c2c1nc(Cc1cn3ccsc3n1)n2CC(=O)c1ccc(OC)cc1`, the inhibition in data set [1] worked out at 91.4%. For the same compound, in data set [2], half-maximal inhibition (IC50) required 0.182 µM. Moreover, the remaining at 0.5 h was 69% in data set [3] and 30% in data set [4]. In turn, `CCn1c(=O)[nH]c(=O)c2c1nc(Cc1cn3ccsc3n1)n2CC(=O)c1ccc(N)cc1` displayed an inhibition in data set [1] of 87.8%. This compound registered an IC50 in data set [2] of 0.168 µM. The remaining at 0.5 h in data set [3] was 95.3%; in data set [4] it was 80.8%. In data set [1], `CCn1c(=O)[nH]c(=O)c2c1nc(Cc1cn3ccsc3n1)n2CC(=O)c1ccccc1OC` yielded an inhibition of 0.3%.

Consider `CCn1c(=O)[nH]c(=O)c2c1nc(Cc1cn3ccsc3n1)n2CC(=O)Nc1ccc(OC)cc1`, for which the inhibition in data set [1] came to 4.1%.

Take `CCn1c(=O)[nH]c(=O)c2c1nc(Cc1cn3ccsc3n1)n2C/C(=N/O)c1ccc(OC)cc1`: the inhibition in data set [1] was 25.5%. Same read-out and setting: the result for `CCn1c(=O)[nH]c(=O)c2c1nc(Cc1cn3ccsc3n1)n2CC(=O)c1ccc(C(F)(F)F)cc1` reads 47.5%. Turning to `CCn1c(=O)[nH]c(=O)c2c1nc(Cc1cn3ccsc3n1)n2CC(=O)c1ccc(O)cc1`, the inhibition result in data set [5] and in data set [6] was “Active” throughout. Moreover, the inhibition in data set [1] was 94.3%. Also, the IC50 in data set [2] was determined as 0.11 µM. In addition, the values for the remaining at 0.5 h in data set [3] and in data set [4] were 80.4% and 77.3%, respectively. `CCn1c(=O)[nH]c(=O)c2c1nc(Cc1cn3ccsc3n1)n2CC(=O)c1ccccc1` yielded an inhibition in data set [1] of 39.4%.

For the compound `CCn1c(=O)[nH]c(=O)c2c1nc(Cc1cn3ccsc3n1)n2CC(=O)c1ccc(N=[N+]=[N-])cc1`, the inhibition in data set [1] is 87.9%.

On to `CCn1c(=O)[nH]c(=O)c2c1nc(Cc1cn3ccsc3n1)n2Cc1ccccc1`, for which, in data set [1], the inhibition is 48.6%. This compound gave an IC50 in data set [2] of 1.16 µM. `CCn1c(=O)[nH]c(=O)c2c1nc(Cc1cn3ccsc3n1)n2CC(=O)c1ccc(F)cc1` showed an inhibition in data set [1] of 62.6%. Same read-out and setting: with `CCn1c(=O)[nH]c(=O)c2c1nc(Cc1ccccc1)n2Cc1ccccc1` the figure was 0%.

In the case of `CCn1c(=O)[nH]c(=O)c2c1nc(Cn1ccnc1)n2Cc1ccccc1`, the inhibition in data set [1] came out at 0%.

In data set [1], `CCn1c(=O)[nH]c(=O)c2c1nc(Cc1cn3ccsc3n1)n2CC(=O)c1ccc(CO)cc1` came in with an inhibition of 83%. For the same compound, the IC50 in data set [2] is 0.277 µM. The remaining at 0.5 h in data set [3] was 91.5%; in data set [4], 85.2%. In turn, `CCn1c(=O)[nH]c(=O)c2c1nc(Cc1cn3ccsc3n1)n2CC(=O)c1cccc(OC)c1` registered an inhibition in data set [1] of 38.9%. On the same count and under the same terms, the result for `CCn1c(=O)[nH]c(=O)c2c1nc(C)n2Cc1ccccc1` reads 0%. `CCn1c(=O)[nH]c(=O)c2c1nc(Cc1cn3ccsc3n1)n2CC(=O)c1ccc(Br)cc1` displayed an inhibition in data set [1] of 47.2%. On the same count and under the same terms, with `CCn1c(=O)[nH]c(=O)c2c1nc(Cc1cn3ccsc3n1)n2CC(=O)c1ccc(Cl)cc1` the figure was 66%. On the same count and under the same terms, with `CCn1c(=O)[nH]c(=O)c2c1nc(Cc1cn3ccsc3n1)n2CC(=O)c1ccc(OC(C)=O)cc1` the figure was 80.8%. In turn, `CCn1c(=O)[nH]c(=O)c2c1nc(Cn1cnc3ccccc31)n2Cc1ccccc1` came in with an inhibition in data set [1] of 0%. Still for that read-out and setting: the result for `CCn1c(=O)[nH]c(=O)c2[nH]c(Cc3cn4ccsc4n3)nc21` reads 10.2%; that for `CCn1c(=O)n(Cc2ccccc2)c(=O)c2c1nc(Cc1cn3ccsc3n1)n2Cc1ccccc1`, 6.2%; that for `CCn1c(=O)[nH]c(=O)c2c1nc(Cc1cn3ccsc3n1)n2CC(=O)c1ccc(-c2ccccc2)cc1`, 32.6%.

`CCn1c(=O)[nH]c(=O)c2c1nc(Cc1cn3ccsc3n1)n2CC(O)c1ccc(Cl)cc1` (centres undefined): the inhibition in data set [1] came to 0%.
